Results from patent US10233184B2, “7-substituted sulfonimidoylpurinone compounds and derivatives for the treatment and prophylaxis of virus infection” (Hoffmann-La Roche Inc., priority 2016, dated 2019).
Converted amounts (≈) assume the structure as drawn.

How the values were obtained:
HBV = test: In vivo antiviral efficacy in AAV-HBV mouse model; set-up: species or system C57BL/6 mice; conditions: for reduction in HBV DNA / reduction in HBsAg: serum
From the text: 4-6 week old male C57BL/6 mice, specific pathogen free, were purchased from Shanghai Laboratory Animal Center of Chinese Academy of Sciences (SLAC) and housed in an animal care facility in individually ventilated cages under controlled temperature and light conditions following the Institutional Animal Care guidelines. AAV-HBV virus was purchased from Beijing FivePlus Molecular Medicine Institute (Beijing, China). The recombinant virus carries 1.3 copies of the HBV genome packaged into AAV serotype 8 (AAV8) capsids. C57BL/6 mice were injected with 200 μL of the recombinant virus diluted in saline buffer through tail vein. On day 14, the mice were bled to measure HBV surface antigen (HBsAg) and HBV genomic DNA in the serum, and animals were then randomized into groups according to these HBV biomarkers.
Serum HBsAg and HBeAg were measured using CLIA kits (Autobio Diagnostics Co., Ltd., Zhengzhou, China) according to the manufacturer's instructions. The lower limit of detection for HBsAg was 0.05 IU/mL. Serum dilution of 500-fold was used to obtain values within the linear range of the standard curve.
Serum HBV DNA was extracted using a MagNA Pure 96 DNA and Viral NA Small Volume Kit (Roche) following the manufacturer's instructions. The DNA samples were analyzed by real-time quantitative PCR (qPCR) using a HBV-specific primer and probe set for specific amplification and detection of a 128 bp HBV genome region from the nucleotide 2969 to 3096. The sequences of the primers and probe are: […]
Anti-HBs in the serum was tested using Anti-HBs CLIA kits (Autobio Diagnostics Co., Ltd., Zhengzhou, China) and mouse anti-IgG conjugated with Biotin (0.5 mg/mL) from a Mabtech B Elispot kit. The anti-IgG Biotin was diluted in PBS with a final concentration of 1 μg/mL. 25 μL of mouse anti-IgG were mixed with serum samples in wells of the plate in the Anti-HBs CLIA kit for 1-hour incubation. Then wash the plate and add Streptavidin-HRP for 1-hour incubation at room temperature. After repeating the washing step, mix substrate A and B from the CLIA kit and add 50 μL of the mixture in each well. After 5-min incubation at room temperature, the plate was read on an Envision Plate Reader (PerkinElmer) to measure luminecence.
The mouse model with high level expression of both HBV DNA and HBsAg was generated by injecting C57BL/6 mice with a recombinant adeno-associated virus (AAV) carrying a replicable HBV genome (AAV-HBV). With long-lasting HBV viremia and fully competent immune system, the AAV-HBV mouse model was utilized to evaluate the antiviral efficacy of the TLR7 agonists following the study design as shown in Table 3.
Specifically, groups 2 and 3 were orally dosed with Example 43-A at 10 mg/kg every other day (QOD) and once weekly (QW), respectively, and the control group 1 received only Vehicle. At the dosing volume of 10 mL/kg, Example 43-A (1 mg/mL) was formulated as an inclusion complex with 2% Klucel LF, 0.5% TPGS, 0.09% Methylparabens, 0.01% Propylparabens in water. The animals were treated for a total of 42 days, and were submandibularly bled twice per week for serum collection throughout the study. The serum samples were subjected to analysis of HBV biomarkers.
The antiviral efficacy of Example 41-A was evaluated in the same AAV-HBV model following the study design in Table 4 with the same methods to measure HBV biomarkers as described in Example 51.
Specifically, groups 2, 3 and 4 were orally dosed with Example 41-A at 1, 3 and 10 mg/kg QOD respectively. Group 5 was treated with 10 mg/kg QW, while group 1 with only Vehicle. At the dosing volume of 10 mL/kg, Example 41-A (0.1, 0.3, and 1 mg/mL) was formulated as an inclusion complex with 2% Klucel LF, 0.5% TPGS, 0.09% Methylparabens, 0.01% Propylparabens in water. The animals were treated for a total of 42 days, and were submandibularly bled twice per week for serum collection throughout the study. The serum samples were subjected to analysis of HBV biomarkers. […]

LYSA solubility study = assay type: physicochemical; conditions: phosphate buffer, pH 6.5, aqueous buffer, thermodynamic from solid, 0.05M phosphate buffer pH 6.5, read-out: LYSA of Prodrugs
In short: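 Samples from 10 mM DMSO stock were dried, redissolved in 0.05M phosphate buffer pH 6.5, stirred 1 h, shaken 2 h, left overnight and filtered. Filtrate and 1/10 dilution quantified by HPLC-UV; solubility in μg/mL, reported as greater-than when >80% of the maximum sample amount was in solution.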

[1] = AAV-HBV mice, 10 mg/kg PO QOD, 42 days
[2] = AAV-HBV mice, 10 mg/kg PO QW, 42 days
[3] = AAV-HBV mice, 1, 3, 10 mg/kg PO QOD (all three doses)
[4] = AAV-HBV mice, 1, 3, 10 mg/kg PO QOD, 42 days
[5] = AAV-HBV mice, 1, 3, 10 mg/kg PO QOD, 42 days, all treated groups

SMILES | levels of HBV DNA and HBsAg at the end of the 42-day treatment (HBV; AAV-HBV mice, 10 mg/kg PO QOD) | reduction in HBV DNA (HBV; [1]) | reduction in HBsAg (HBV; [1]) | reduction in HBV DNA (HBV; [2]) | reduction in HBsAg (HBV; [2]) | anti-HBsAg antibody level (HBV; AAV-HBV mice, 10 mg/kg PO, regardless of QOD and QW, 42 days) | solubility thermodynamic (LYSA solubility study) | levels of HBV DNA and HBsAg at the treatment end (HBV; [2]) | levels of HBV DNA and HBsAg at the end of the 42-day treatment (HBV; [3]) | anti-HBsAg antibody level (HBV; AAV-HBV mice, 1, 3, 10 mg/kg PO QOD and 10 mg/kg QW, post treatment, versus Vehicle) | effect on HBV DNA and HBsAg (HBV; [4]) | anti-HBsAg antibody level (HBV; [5])
CCCN(C)C(=O)n1c(=O)n(Cc2ccc(C)cc2)c2nc([S@](=N)(=O)CC)nc(N)c21 [Example 43-A, 6-Amino-2-[S(R)-ethylsulfonimidoyl]-N-methyl-8-oxo-N-propyl-9-(p-tolylmethyl)purine-7-carboxamide] | undetectable and below the lower limit of quantification (LLOQ) | > 3 log | > 2.8 log | > 2 log | > 2.8 log | induced a considerable level of anti-HBsAg antibody | 203 µg/mL (≈ 456 µM) | – | – | – | – | –
CCCN(C)C(=O)n1c(=O)n(Cc2ccc(Cl)cc2)c2nc([S@](=N)(=O)CC)nc(N)c21 [Example 41-A, 6-Amino-9-[(4-chlorophenyl)methyl]-2-[S(R)-ethylsulfonimidoyl]-N-methyl-8-oxo-N-propyl-purine-7-carboxamide] | – | – | – | – | – | – | 260 µg/mL (≈ 558 µM) | undetectable levels | below or close to the LLOQ | significantly higher levels of antibody against-HbsAg than Vehicle | dose-dependently reduced HBV DNA and HBsAg | –
CCCN(C)C(=O)n1c(=O)n(Cc2ccc(Cl)cc2)c2nc([S@@](=N)(=O)CC)nc(N)c21 [Example 41-B, 6-Amino-9-[(4-chlorophenyl)methyl]-2-[S(S)-ethylsulfonimidoyl]-N-methyl-8-oxo-N-propyl-purine-7-carboxamide] | – | – | – | – | – | – | 250 µg/mL (≈ 537 µM) | – | below the LLOQ | – | all effective to reduce HBV DNA and HBsAg | high levels of anti-HBsAg antibody than the Vehicle group
CCN(C)C(=O)n1c(=O)n(Cc2ccc(Cl)cc2)c2nc([S@@](=N)(=O)CC)nc(N)c21 [Example 42-A, 6-Amino-9-[(4-chlorophenyl)methyl]-N-ethyl-2[S(S)-ethylsulfonimidoyl]-N-methyl-8-oxo-purine-7-carboxamide] | – | – | – | – | – | – | 225 µg/mL (≈ 498 µM) | – | below or close to the LLOQ | – | all effective to reduce HBV DNA and HBsAg | significantly higher levels of anti-HBsAg antibody
